Values joined by “and” are separate entries in the source; they are usually repeats but may differ in a detail not shown here. Equal values may be shown once. Toxic doses and inconclusive results are not listed.
System: L1210 leukemia ip in BDF1 mice, survival T/C
Assay: NCI In Vivo Anticancer Drug Screen. Data for tumor model L1210 Leukemia (intraperitoneal) in B6D2F1 (BDF1) mice
Conditions: endpoint: mean survival time, higher = longer survival
Summary of the method: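 Each compound was tested against a transplantable tumor grown in mice. The endpoint was survival, with treated animals benchmarked against vehicle controls as a simple ratio.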

[1] = dose: 100.0 mg/kg/injection, schedule: Q01DX001 (ip), vehicle: saline
[2] = dose: 200.0 mg/kg/injection, schedule: Q01DX001 (ip), vehicle: saline
[3] = dose: 400.0 mg/kg/injection, schedule: Q01DX001 (ip), vehicle: saline
[4] = dose: 100.0 mg/kg/injection, schedule: Q01DX009 (ip), vehicle: Klucel (hydroxypropylcellulose) (HPC)
[5] = dose: 200.0 mg/kg/injection, schedule: Q01DX009 (ip), vehicle: Klucel (hydroxypropylcellulose) (HPC)
[6] = dose: 100.0 mg/kg/injection, schedule: Q04DX003 (ip), vehicle: saline with Tween-80
[7] = dose: 200.0 mg/kg/injection, schedule: Q04DX003 (ip), vehicle: saline with Tween-80

COc1cc2c(cc1OC(C)=O)CCCCC2=O
T/C [1]: 101 % of control | T/C [2]: 103 % of control | T/C [3]: 101 % of control

O=[N+]([O-])c1cc([N+](=O)[O-])c(NC(c2ccccc2)C(O)c2ccccc2)c([N+](=O)[O-])c1 (stereo unspecified)
T/C (dose: 100.0 mg/kg/injection, schedule: Q04DX003 (ip), vehicle: acetone): 98 % of control | T/C (dose: 200.0 mg/kg/injection, schedule: Q04DX003 (ip), vehicle: acetone): 96 % of control | T/C (dose: 400.0 mg/kg/injection, schedule: Q04DX003 (ip), vehicle: acetone): 93 % of control

CC1(C)N=C(N)N=C(N)N1c1cccc(OCCOc2ccc(NC(=O)CBr)cc2)c1
T/C (dose: 50.0 mg/kg/injection, schedule: Q01DX009 (ip), vehicle: saline): 124 % of control | T/C [1]: 94 % of control | T/C (dose: 100.0 mg/kg/injection, schedule: Q01DX009 (ip), vehicle: other): 172 % of control | T/C (dose: 150.0 mg/kg/injection, schedule: Q01DX009 (ip), vehicle: other): 154 % of control | T/C [2]: 109 % of control | T/C (dose: 200.0 mg/kg/injection, schedule: Q01DX009 (ip), vehicle: other): 100 % of control | T/C (dose: 200.0 mg/kg/injection, schedule: Q01DX009 (ip), vehicle: saline): 97 % of control | T/C [3]: 112 % of control

OCCCCc1ccccc1
T/C (dose: 100.0 mg/kg/injection, schedule: Q01DX001 (ip), vehicle: saline sonified): 95 % of control | T/C (dose: 100.0 mg/kg/injection, schedule: Q01DX009 (ip), vehicle: saline sonified): 104 % of control | T/C (dose: 200.0 mg/kg/injection, schedule: Q01DX001 (ip), vehicle: saline sonified): 101 % of control | T/C (dose: 200.0 mg/kg/injection, schedule: Q01DX009 (ip), vehicle: saline sonified): 97 % of control | T/C (dose: 400.0 mg/kg/injection, schedule: Q01DX001 (ip), vehicle: saline sonified): 111 % of control

Cc1cc(C(C)(C)CC(C)(C)C)ccc1O
T/C (dose: 100.0 mg/kg/injection, schedule: Q01DX009 (sc), vehicle: olive oil, sesame oil, peanut oil): 100 % of control | T/C (dose: 100.0 mg/kg/injection, schedule: Q04DX003 (sc), vehicle: olive oil, sesame oil, peanut oil): 110 % of control | T/C (dose: 200.0 mg/kg/injection, schedule: Q01DX009 (sc), vehicle: olive oil, sesame oil, peanut oil): 100 % of control | T/C (dose: 200.0 mg/kg/injection, schedule: Q04DX003 (sc), vehicle: olive oil, sesame oil, peanut oil): 101 % of control | T/C (dose: 400.0 mg/kg/injection, schedule: Q01DX009 (sc), vehicle: olive oil, sesame oil, peanut oil): 96 % of control | T/C (dose: 400.0 mg/kg/injection, schedule: Q04DX003 (sc), vehicle: olive oil, sesame oil, peanut oil): 105 % of control

Cc1cn(CC(C)C)c(=O)n(-c2ccccc2)c1=O
T/C (dose: 100.0 mg/kg/injection, schedule: Q01DX Z (ip), vehicle: methylcellulose (MC)): 95 % of control

O=C(N/N=C/C(CC(O)C(O)CO)=N/NC(=O)c1ccc(Cl)cc1)c1ccc(Cl)cc1 (stereo unspecified)
T/C [4]: 109 % of control | T/C [5]: 97 % of control

COC(=O)Nc1cccc(OC(=O)NC(C)C)c1
T/C [6]: 95 % of control | T/C [7]: 93 % of control | T/C (dose: 400.0 mg/kg/injection, schedule: Q04DX003 (ip), vehicle: saline with Tween-80): 93 % of control

S=P(NCCCCCNP(=S)(N1CC1)N1CC1)(N1CC1)N1CC1
T/C (dose: 100.0 mg/kg/injection, schedule: Q01DX001 (ip), vehicle: carboxymethylcellulose (CMC)): 91 % of control

O=C(CC(=O)CC(O)(C(F)(F)F)C(F)(F)F)CC(O)(C(F)(F)F)C(F)(F)F
T/C (dose: 2.5 mg/kg/injection, schedule: Q01DX009 (ip), vehicle: saline): 97 % of control | T/C (dose: 5.0 mg/kg/injection, schedule: Q01DX009 (ip), vehicle: saline): 95 % of control

C[N+](C)(C)C1CCCCC1
T/C (dose: 75.0 mg/kg/injection, schedule: Q01DX001 (ip), vehicle: saline): 110 % of control and 106 % of control | T/C (dose: 150.0 mg/kg/injection, schedule: Q01DX001 (ip), vehicle: saline): 105 % of control and 106 % of control

CCCCCCCCCCOC(=O)N1C(=O)NC(=O)C1c1ccccc1 (stereo unspecified)
T/C [4]: 104 % of control | T/C (dose: 100.0 mg/kg/injection, schedule: Q04DX003 (ip), vehicle: Klucel (hydroxypropylcellulose) (HPC)): 103 % of control | T/C [5]: 104 % of control | T/C (dose: 200.0 mg/kg/injection, schedule: Q04DX003 (ip), vehicle: Klucel (hydroxypropylcellulose) (HPC)): 97 % of control | T/C (dose: 400.0 mg/kg/injection, schedule: Q01DX009 (ip), vehicle: Klucel (hydroxypropylcellulose) (HPC)): 96 % of control | T/C (dose: 400.0 mg/kg/injection, schedule: Q04DX003 (ip), vehicle: Klucel (hydroxypropylcellulose) (HPC)): 93 % of control

CCN1CCC2=C(CCCC2O)C1 (stereo unspecified)
T/C (dose: 75.0 mg/kg/injection, schedule: Q01DX001 (ip), vehicle: steriod suspending solution): 104 % of control | T/C (dose: 150.0 mg/kg/injection, schedule: Q01DX001 (ip), vehicle: steriod suspending solution): 98 % of control

CCCCCCSC(=O)Nc1ccc(C)c(NC(=O)SCCCCCC)c1
T/C [6]: 91 % of control | T/C [7]: 89 % of control

Source: PubChem BioAssay AID248 (DTP/NCI, 2004)
